The source of these data is patent publication US20210348204A1, “Systems, Methods, And Compositions For The Production of Water-Soluble Terpenes Derived From Cannabis Plants” (Trait Biosciences, Inc., priority 2018, published 2021).

The structures appear in SMILES notation.

The conditions of data set [1]: in vivo; cited from earlier work.
For data set [2] the following is noted: on inhalation in mice; cited from earlier work.
The target of the next data set is adenosine Aza (Mus musculus, UniProt Q60613). The note with it: via adenosine Aza; cited from earlier work.
Sequence of adenosine Aza (Q60613 whole entry): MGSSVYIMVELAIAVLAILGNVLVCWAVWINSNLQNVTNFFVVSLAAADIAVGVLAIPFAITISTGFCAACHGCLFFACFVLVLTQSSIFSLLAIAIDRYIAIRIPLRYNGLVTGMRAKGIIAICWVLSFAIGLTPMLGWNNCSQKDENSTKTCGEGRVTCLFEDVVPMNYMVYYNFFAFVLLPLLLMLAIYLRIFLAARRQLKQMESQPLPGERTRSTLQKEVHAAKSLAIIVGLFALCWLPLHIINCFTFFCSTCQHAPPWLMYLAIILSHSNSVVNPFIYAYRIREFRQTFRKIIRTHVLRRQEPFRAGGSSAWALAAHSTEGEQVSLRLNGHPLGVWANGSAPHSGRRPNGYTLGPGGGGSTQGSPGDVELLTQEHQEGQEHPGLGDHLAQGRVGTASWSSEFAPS
Another data set concerns glutamate. The note with it: in vivo; cited from earlier work.
Another data set deals with Leishmania. To be noted: cited from earlier work.
In another data set the test system is platelet aggregation. To be noted: cited from earlier work.
In a further data set the test system is onychomycosis. To be noted: comparable to ciclopiroxolamine and sulcanazole; cited from earlier work.
In a further data set the test system is PGE-2. The note with it: via PGE-2; cited from earlier work.
The conditions of data set [3]: antagonized by naloxone; cited from earlier work.
The conditions of data set [4]: in vivo; cited from earlier work. This is another data set of the same source.
Data set [5] deals with Pichia pastoris yeast cells. The experiment in a line: Yeast cell growth after feeding transgenic Pichia cultures with individual terpenes. To be noted: terpene 100 μg/mL final concentration, cultures harvested 2 days post-feeding.
The conditions of data set [6]: via inhalation; cited from earlier work.
A further data set concerns the target T1, 5-HTEA (Mus musculus, UniProt Q64264).
T1 sequence (Q64264 1-421): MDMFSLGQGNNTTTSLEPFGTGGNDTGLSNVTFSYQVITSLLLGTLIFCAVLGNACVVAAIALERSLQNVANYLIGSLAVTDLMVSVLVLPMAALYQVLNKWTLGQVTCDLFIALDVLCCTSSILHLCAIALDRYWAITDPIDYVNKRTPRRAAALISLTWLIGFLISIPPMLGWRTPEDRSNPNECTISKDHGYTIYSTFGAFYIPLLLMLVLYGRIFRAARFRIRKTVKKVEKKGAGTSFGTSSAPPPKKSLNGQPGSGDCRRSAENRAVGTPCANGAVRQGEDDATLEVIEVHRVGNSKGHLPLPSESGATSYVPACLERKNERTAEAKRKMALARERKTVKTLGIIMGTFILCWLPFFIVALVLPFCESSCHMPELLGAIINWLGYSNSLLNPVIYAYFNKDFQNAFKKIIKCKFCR
The note with it: via 5-HTEA; cited from earlier work.

In the next data set the test system is breast cancer cells. The note with it: cited from earlier work.
The next data set has as its system acne bacteria. To be noted: cited from earlier work.
A further data set relates to Dermatophytes. To be noted: cited from earlier work.
The conditions of data set [7]: in vivo; cited from earlier work. The source holds these as a separate data set.
A further data set relates to cannabinoid receptor. To be noted: cited from earlier work.
Another data set concerns PGE-1. The note with it: via PGE-1, comparable phenylbutazone; cited from earlier work.
For data set [8] the following is noted: in vivo; cited from earlier work. This is another data set of the same source.
A further data set has as its system malaria. The note with it: cited from earlier work.
The target of a further data set is CB2 (Homo sapiens, UniProt P34972). To be noted: cited from earlier work.
Sequence of CB2 (P34972 whole entry): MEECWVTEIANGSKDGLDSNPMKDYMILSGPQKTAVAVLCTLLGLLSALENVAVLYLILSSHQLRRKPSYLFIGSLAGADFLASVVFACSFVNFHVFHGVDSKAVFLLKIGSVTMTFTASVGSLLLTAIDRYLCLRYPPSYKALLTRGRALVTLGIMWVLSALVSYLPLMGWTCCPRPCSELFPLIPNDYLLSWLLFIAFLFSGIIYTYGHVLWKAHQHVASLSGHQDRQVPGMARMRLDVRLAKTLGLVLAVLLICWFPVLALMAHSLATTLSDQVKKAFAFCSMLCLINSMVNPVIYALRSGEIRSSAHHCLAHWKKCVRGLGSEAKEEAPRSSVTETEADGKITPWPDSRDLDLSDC
Another data set has as its system PGE-3. To be noted: via PGE-3; cited from earlier work.
The conditions of data set [9]: in humans; cited from earlier work.
Another data set addresses Acetylcholinesterase (Homo sapiens, UniProt P22303). The note with it: aiding memory; cited from earlier work.

Sequence of Acetylcholinesterase (P22303 32-614): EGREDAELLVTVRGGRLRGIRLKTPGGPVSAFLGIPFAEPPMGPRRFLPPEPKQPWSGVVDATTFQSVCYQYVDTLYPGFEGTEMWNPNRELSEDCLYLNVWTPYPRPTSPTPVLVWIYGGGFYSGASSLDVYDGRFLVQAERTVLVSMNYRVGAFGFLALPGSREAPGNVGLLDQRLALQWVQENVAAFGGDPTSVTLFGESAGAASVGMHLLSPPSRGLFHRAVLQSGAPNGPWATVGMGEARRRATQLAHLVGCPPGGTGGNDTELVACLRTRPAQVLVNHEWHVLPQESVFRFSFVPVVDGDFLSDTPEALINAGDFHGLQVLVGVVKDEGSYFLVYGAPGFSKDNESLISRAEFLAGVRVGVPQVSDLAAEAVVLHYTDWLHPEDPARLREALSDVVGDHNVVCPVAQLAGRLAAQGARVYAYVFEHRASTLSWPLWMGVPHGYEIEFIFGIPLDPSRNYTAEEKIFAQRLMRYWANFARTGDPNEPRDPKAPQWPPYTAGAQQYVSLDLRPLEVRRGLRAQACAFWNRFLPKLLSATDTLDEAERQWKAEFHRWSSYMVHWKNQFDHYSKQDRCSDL

For `C=CC(C)(O)CCC=C(C)C` (stereo not drawn) [Linalool], the Anti-anxiety activity result in data set [1] is “Anti-anxiety”. Moreover, the Sedative activity result in [2] was “Sedative on inhalation in mice”. Further, the Analgesic activity result at adenosine Aza is “Analgesic via adenosine Aza (Peana et al.,”. For the same compound, the Anticonvulsant/anti-glutamate activity entry with glutamate is reported as “Anticonvulsant/anti-glutamate (Elisabetsky”. The Anti-leishmanial activity entry with Leishmania is reported as “Potent anti-leshmarial (do Socorro et al.,”.
In the case of `C=C1CC[C@H]2O[C@]2(C)CC[C@@H]2[C@@H]1CC2(C)C` [Caryophyllene Oxide], in the data set on platelet aggregation, the “Effect on platelet aggregation” value is on record as “Decreases platelet aggregation”. In addition, the “Antifungal activity in onychomycosis” value in the data set on onychomycosis was “Antifungal in onychomycosis comparable to ciclopiroxolamine and sulcanazole”.
As to `C=CC(=C)CCC=C(C)C` [β-Myrcene], the Blocking of inflammation entry with PGE-2 was “Blocks inflammation via PGE-2”. For the same compound, in [3], the Analgesic activity result is reported as “Analgesic, antagonized by naloxone”. Moreover, the “Sedating, muscle relaxant, hypnotic activity” value in data set [4] was “Sedating, muscle relaxant, hypnotic (da Vale”.
Regarding `CC(C)=CCC[C@](C)(O)[C@@H]1CC=C(C)CC1` [alpha-bisabolol], the “Effect on yeast cell growth rates” value in data set [5] is “no observed negative effect”.
As to `CC(C)=CCC/C(C)=C\CO` [nerol], the “Effect on yeast cell growth rates” value in data set [5] is “no observed negative effect”.
In the case of `C=C(C)[C@H]1CC=C(C)CC1` [Limonene], the AD/immunostimulant activity result in [6] is listed as “Potent AD/immunostimulant via inhalation”. Also, the Anxiolytic activity entry at 5-HTEA is given as “Anxielytic”. In the data set on breast cancer cells, the “Apoptosis of breast cancer cells” value is “Apoptosis of breast cancer cells (Vigushin”. Moreover, the “Activity against acne bacteria” value in the data set with acne bacteria is on record as “Active against acne bacteria (Kim et al., 2008)”. In addition, the Activity against dermatophytes result in the data set with Dermatophytes is recorded as “Dermatophytes (Sanguinetti et al., 2007;”. Further, the “Activity in gastro-aesophageal reflux” value in [7] is “Gastro-aesophageal reflux (Harris, 2010)”.
For the compound `C=C(C)[C@@H]1CCC(C)=C[C@H]1c1c(O)cc(CCCCC)cc1O` [CBD, cannabidiol], the “Affinity for the cannabinoid receptor (in words)” value with cannabinoid receptor is “do not have significant affinity”.
As to `C=C1CC/C=C(\C)CC[C@@H]2[C@@H]1CC2(C)C` [β-Caryophyllene], in the data set on PGE-1, the “A1 (anti-inflammatory) activity” value is given as “A1 via PGE-1 comparable phenylbutazone”. In [8], the Gastric cytoprotective activity entry is given as “Gastric cytoprotective”. Also, in the data set with malaria, the Anti-malarial activity entry is on record as “Anti-malarial”. For the same compound, the “Selective CB2 agonist (concentration given)” value at CB2 is given as 100 nM.
Regarding `CC1=CCC2CC1C2(C)C` (stereo not drawn) [α-Pinene], in the data set with PGE-3, the Anti-inflammatory activity result is on record as “Anti-inflammatory via PGE-3”. Further, in [9], the Bronchodilatory activity result is recorded as “Bronchodilatory in humans”. Moreover, the Acetylcholinesterase inhibition entry on Acetylcholinesterase is reported as “Acetylcholinesterase inhibitor, aiding memory”.
`CC(C)=CCCC(C)CCO` (stereo not drawn) [citronellol]: the “Effect on yeast cell growth rates” value in data set [5] is recorded as “no observed negative effect”.
